Active and inactive are the calls of the source. No rule for the calls is given here.
Key:
[1] = Her2 expression suppression with viability readout – cell-based, AlphaScreen, CellTiter-Glo viability, dose response (AID 742); details: human cells, Her2 expression AlphaScreen; CTG viability; at 9.62 µM (top of the series)
[2] = system: human cells, Her2 expression AlphaScreen; CTG viability; test: as above; details: viability, CellTiter-Glo

Row | SMILES | Her2 inhibition [1] | EC50 [2]
1 | Cc1ccc(S(=O)(=O)c2c(C)nn(C(C)(C)C)c2OC(=O)c2ccc(Br)o2)cc1 | 4.78% (inactive) | > 9.62 µM
2 | COc1ccc(-c2nc(C(N)=O)c3[nH]c(=O)n(-c4cccc(Cl)c4)c3n2)cc1OC | -17.3% (inactive) | > 9.62 µM
3 | FC(F)(F)c1ccc(N2CCOCC2)c(Nc2nc3ccccc3n3cnnc23)c1 | -15.5% (inactive) | > 9.62 µM
4 | Cc1ccc(C2CC(=O)N3CN(c4ccc(Br)cc4)CSC3=C2C#N)o1 (stereo unspecified) | 16% (inactive) | > 9.62 µM
5 | c1ccc2cc(OCCN3CCCC3)ccc2c1 | -36.3% (inactive) | > 9.62 µM
6 | O=C(NCc1ccco1)C(Cc1ccccc1)N1C(=O)c2ccccc2C1=O (stereo unspecified) | -6.2% (inactive) | > 9.62 µM
7 | CCN(C(=O)COC(=O)c1cc(C)n(-c2ccc(F)cc2)c1C)C1CCS(=O)(=O)C1 (stereo unspecified) | -2.5% (inactive) | > 9.62 µM
8 | COC(=O)c1sccc1NC(=O)c1csc(C)c1 | 29.8% (inactive) | > 9.62 µM
9 | O=C(CCCCCn1c(=S)[nH]c2cc3c(cc2c1=O)OCO3)N1CCN(C2CCCCC2)CC1 | 4.12% (inactive) | > 9.62 µM
10 | Cc1cc(C)n(-c2c(F)c(F)c(CN3CCOCC3)c(F)c2F)n1 | -10.7% (inactive) | > 9.62 µM
11 | O=C(CCn1[nH]c(=O)c2ccccc2c1=O)OC1CCCCC1 | -7.62% (inactive) | > 9.62 µM
12 | COc1ccc(-n2nnc3c(SCC(=O)Nc4ccc5c(c4)OCCO5)ncnc32)cc1 | -9.58% (inactive) | > 9.62 µM
13 | CC1(C)CC(=O)C2(CC3=C(CC(C)(C)CC3=O)O2)C(=O)C1 | -2.95% (inactive) | > 9.62 µM
14 | COc1ccc(C(=O)c2no[n+]([O-])c2C(=O)c2ccc(OC)cc2)cc1 | -48.2% (inactive) | > 9.62 µM
15 | Cn1nc(C(=O)Nc2c(-c3ccccc3)nc3sccn23)c2ccccc2c1=O | -13.2% (inactive) | > 9.62 µM
16 | CCN(CC)c1ccc(-c2nn3c(-c4n[nH]c5c4CCC5)nnc3s2)cc1 | -1.69% (inactive) | > 9.62 µM
17 | Cc1c(C#N)c(N)c(C(=O)c2ccccc2)n1Cc1ccccc1 | -0.29% (inactive) | > 9.62 µM
18 | Cc1ccc(NC(=O)CNc2cccc(C)c2C)c(C)c1 | -12.6% (inactive) | > 9.62 µM
19 | Cc1ccc(C(c2sc3nc(C)nn3c2O)N2CCN(c3ccccc3F)CC2)cc1 (stereo unspecified) | -4.31% (inactive) | > 9.62 µM
20 | CCNC(=O)c1nc[nH]c1C(=O)NCC | 2.98% (inactive) | > 9.62 µM
21 | O=C1C2ON(c3ccccc3)C(c3cccnc3)C2C(=O)N1c1ccc(Cl)c(Cl)c1 (stereo unspecified) | -16.1% (inactive) | > 9.62 µM
22 | O=C(O)CCc1nn2cc(-c3ccccc3)nc2[nH]c1=O | -26.9% (inactive) | > 9.62 µM
23 | CCc1ccc2oc(-c3cc(N=Cc4cccc(OC)c4O)ccc3O)nc2c1 | 20.2% (inactive) | > 9.62 µM
24 | CCOC(=O)c1c(C)oc2c1c(C(c1ccncc1)N1CCOCC1)c(O)c1ccccc12 (stereo unspecified) | 23.5% (inactive) | > 9.62 µM
25 | O=C(CCN1CCC(c2ccccc2)C1)c1cccs1 (stereo unspecified) | -8.45% (inactive) | > 9.62 µM
26 | O=C1/C(=N/n2cnnc2)c2ccccc2N1Cc1ccccc1 | -25% (inactive) | > 9.62 µM

Row | SMILES | Her2 inhibition [1] | EC50 [2]
27 | CCN(CC)C(=O)c1csc(Nc2ccc(C)cc2)n1 | -12.9% (inactive) | > 9.62 µM
28 | C=CCn1c(=O)c2ccccc2n2c(SCc3cc(=O)n4ccsc4n3)nnc12 | -18.6% (inactive) | > 9.62 µM
29 | CCN(CC)c1ccc2c(c1)oc(=O)c1c(Cl)cc(=O)oc12 | -20.7% (inactive) | > 9.62 µM
30 | COC(=O)CS(=O)(=O)c1nnc([C@H](Cc2ccccc2)NC(=O)OC(C)(C)C)o1 | -2.38% (inactive) | > 9.62 µM
31 | CCCC1C(c2ccccc2)C(C#N)(C#N)C2(C#N)CC1(N)NC2=O (stereo unspecified) | -6.63% (inactive) | > 9.62 µM
32 | CCCCCCOC(=O)C(C#N)c1nc2ccccc2nc1N1CCN(C)CC1 (stereo unspecified) | -32.5% (inactive) | > 9.62 µM
33 | CC(O)CCc1nc2ccc(C(=O)O)cc2[nH]1 (stereo unspecified) | -23.7% (inactive) | > 9.62 µM
34 | CN1/C(=C/C(=O)c2nc(S(C)(=O)=O)ncc2Cl)C(C)(C)c2ccccc21 | 23.3% (inactive) | > 9.62 µM
35 | COC(=O)CC1=C(C(=O)OC)C(c2ccc3c(c2Cl)OCO3)C(C#N)=C(N)O1 (stereo unspecified) | -10.7% (inactive) | > 9.62 µM
36 | CC1(C)CCCC2=C1CC1C(=O)N(Cc3cccnc3)C(=O)C1C2 (stereo unspecified) | -13.3% (inactive) | > 9.62 µM
37 | O=S(=O)(CCSc1nc2ccccc2o1)c1nc2ccccc2s1 | -10.1% (inactive) | > 9.62 µM
38 | COC(=O)c1[nH]c2ccc(Br)cc2c1NC(=O)C(C)N1CCN(C2CCCCC2)CC1 (stereo unspecified) | -20.7% (inactive) | > 9.62 µM
39 | Cn1c(=O)c2c(SCc3cccc(C(F)(F)F)c3)nc(-c3ccco3)nc2n(C)c1=O | -20.9% (inactive) | > 9.62 µM
40 | COc1ccc(-c2nnc(SC(=O)N3c4ccccc4Sc4ccccc43)o2)cc1 | -24.1% (inactive) | > 9.62 µM
41 | Clc1cccc(-c2nnc(-c3ccccc3)o2)c1 | 34.8% (inactive) | < 0.024 µM
42 | O=C(CN1CCC(c2nc3ccccc3s2)CC1)NCc1cccs1 | -41.9% (inactive) | > 9.62 µM
43 | CCOC(=O)CSc1nnc(-c2ccc(NS(=O)(=O)c3ccc(C)cc3)cc2)o1 | 7.81% (inactive) | > 9.62 µM
44 | CC1=CC(C)(C)Nc2ccc(OC(=O)c3ccco3)cc21 | 1.48% (inactive) | > 9.62 µM
45 | CCOc1ccc(CNc2ccc3c(c2)ncn3C)cc1 | 8.61% (inactive) | > 9.62 µM
46 | CC12CCCCC1(O)[N+](=O)C1=C(CCCC1)N2[O-] (stereo unspecified) | -13.5% (inactive) | > 9.62 µM
47 | CCOC(=O)CC(N)c1ccc2c(c1)OCO2 (stereo unspecified) | -8.02% (inactive) | > 9.62 µM
48 | CCOc1cc(C(=O)NCCOC)ccc1OC | -7.59% (inactive) | > 9.62 µM
49 | CCSC1(SCC)N=C(N)C2(C#N)C(c3ccc(OC)c(OC)c3OC)C12C#N (stereo unspecified) | 6.24% (inactive) | > 9.62 µM
50 | COc1ccc(/C=C/C(O)=C2/C(=O)N(C)C3(C)CC2c2ccccc2O3)cc1 (stereo unspecified) | 23.7% (inactive) | > 9.62 µM
51 | O=C(NCCCc1ccccc1)c1ccncc1 | -8.4% (inactive) | > 9.62 µM
52 | Cc1cc(-c2ccccc2)nc(=O)[nH]1 | -18.4% (inactive) | > 9.62 µM

Row | SMILES | Her2 inhibition [1] | EC50 [2]
53 | O=C(c1ccc(F)cc1)C(CN1CCOCC1)c1ccccc1 (stereo unspecified) | 28.5% (inactive) | > 9.62 µM
54 | O=c1[nH]c(Nc2nc3ccccc3o2)nc2c1CCCC2 | -16.5% (inactive) | > 9.62 µM
55 | COc1cccc(-c2nnn(CC(=O)O)n2)c1 | -1.29% (inactive) | > 9.62 µM
56 | COc1ccc2sc(NC(=O)CC(C)C)nc2c1 | 2.84% (inactive) | > 9.62 µM
57 | O=C1CC(Sc2nnc(-c3ccccc3O)o2)C(=O)N1c1ccccc1 (stereo unspecified) | -8.42% (inactive) | > 9.62 µM
58 | COc1cc2c(C#N)c(N3CCN(c4ccccc4OC)CC3)nc(N)c2c(N)n1 | -7.21% (inactive) | > 9.62 µM
59 | [O-][N+]1=c2ccc(Nc3ccccc3)cc2=NC12CCCCC2 | -11% (inactive) | > 9.62 µM
60 | CCC(=O)OC1(C#CCOc2ccc(OC)cc2)CCN(C)CC1 | -12.2% (inactive) | > 9.62 µM
61 | CC(=O)C(Sc1ncnc2c1nnn2-c1ccc(F)cc1)C(=O)N(C)C (stereo unspecified) | -16.5% (inactive) | > 9.62 µM
62 | Nc1nc2n(n1)C(c1cccs1)CC(c1ccc(Br)cc1)N2 (stereo unspecified) | -10.7% (inactive) | > 9.62 µM
63 | N#Cc1c(N)sc(=S)c2c1CCN(Cc1ccccc1)C2 | -20.9% (inactive) | > 9.62 µM
64 | CCOC(=O)C(C(=O)OCC)c1cc(Br)c2noc3c2c1C(=O)c1ccccc1-3 | 18.8% (inactive) | > 9.62 µM
65 | O=C(Nc1ccc2c(c1)OCO2)c1cnn2cccnc12 | -5.1% (inactive) | > 9.62 µM
66 | CN1CC2=Cc3ccccc3OC23Oc2ccccc2C=C3C1 | -10.3% (inactive) | > 9.62 µM
67 | O=c1cccc(-c2ccccc2)[nH]1 | -24.1% (inactive) | > 9.62 µM
68 | CC(C)COC(=O)N1CC(O)CC1C(=O)O (stereo unspecified) | 7.84% (inactive) | > 9.62 µM
69 | CN(C)CCCN1c2ccccc2Sc2ccc(C(F)(F)F)cc21 | 0.74% (inactive) | > 9.62 µM
70 | Cn1nnnc1Sc1ncnc2scc(-c3ccccc3)c12 | 41.9% (inactive) | > 9.62 µM
71 | C#CCOC(=O)c1ccccc1C(=O)OCC#C | -22.6% (inactive) | > 9.62 µM
72 | N#CCSc1nc2cc(C(=O)N3CCC(C(N)=O)CC3)ccc2c2nc3ccccc3n12 | 5.14% (inactive) | > 9.62 µM
73 | Cn1c(Cl)cnc1C1CC(=O)c2cc(Cl)ccc2O1 (stereo unspecified) | 15.6% (inactive) | > 9.62 µM
74 | Cn1nnnc1SCC(=O)Nc1c(Cl)cccc1Cl | -18.1% (inactive) | > 9.62 µM
75 | Cc1ccc(S(=O)(=O)Nc2cccc3ncccc23)s1 | 14.8% (inactive) | > 9.62 µM
76 | N=c1c2c(-c3ccccc3)c(-c3ccccc3)n(Cc3ccco3)c2ncn1Cc1ccco1 | -27.8% (inactive) | > 9.62 µM
77 | CC(=NCC1CCCO1)c1c(O)n(-c2ccccc2)c(=O)[nH]c1=O (stereo unspecified) | -6.53% (inactive) | > 9.62 µM
78 | COc1ccccc1-c1cc(C(F)(F)F)nc(S(=O)(=O)CCCC(=O)N2CCCCC2C)n1 (stereo unspecified) | -11.6% (inactive) | > 9.62 µM
